Results taken from patent publication US8425925B2, “Pesticidal tag” (priority 2007, dated 2013).
Where two headings read alike, the source gives them in different places.

Legend:
[1] = test system: pyrethroid-susceptible (PY-Susceptible) horn fly (Haematobia irritans irritans) strain; type: in vivo
Procedure: (§1) A comparison of ivermectin formulations is made to determine their toxicity to horn fly (Haematobia irritans irritans) strains. Three formulations are tested: ivermectin alone, ivermectin formulated with epoxidized soybean oil (ESO), and ivermectin formulated with piperonyl butoxide (PBO). Both pyrethroid-resistant (PY-Resistant) and pyrethroid-susceptible (PY-Susceptible) horn fly strains are tested. […] See D C Sheppard & N C Hinkle, “A field procedure using disposable materials to evaluate horn fly insecticide resistance,” J. Agric. Entomol. 4:87-89 (1987).
(§2) Table 1 presents the contact toxicity results in units of μg/cm^2, computed using Log-Probit Analysis. See, e.g., V. K. Borooah, Logit and Probit (2002) (Sage Publications, Thousand Oaks, Calif., USA).
(§3) Further tests, similar to those of the Ivermectin tests described above, were performed using Abamectin compositions.

[2] = test system: pyrethroid-resistant (PY-Resistant) horn fly (Haematobia irritans irritans) strain; type: in vivo
Procedure: as §1, §2, §3

[3] = PY-Susceptible, 4-hour exposure, Log-Probit Analysis
[4] = 4-hour exposure, Log-Probit Analysis

| Substance | Lethal Concentration LC50 [1, 3] [μg/cm^2] | Lethal Concentration LC90 [1, 3] [μg/cm^2] | Lethal Concentration LC50 [2, 4] [μg/cm^2] | Lethal Concentration LC90 [2, 4] [μg/cm^2] | PY-Susceptible versus PY-Resitant RR50 (resistance ratio) ([1]; 8 hour contact, LC50 of PY-susceptible divided by LC50 of PY-resistant horn flies) | PY-Susceptible versus PY-Resitant RR90 (resistance ratio) ([1]; 8 hour contact, LC90 of PY-susceptible divided by LC90 of PY-resistant horn flies) | Lethal Concentrations (cell spanning LC50 and LC90) ([1]; PY-Susceptible, 2 hour contact) | Lethal Concentrations (cell spanning LC50 and LC90) ([1]; PY-Susceptible, 4 hour contact) | Lethal Concentrations LC50 ([1]; PY-Susceptible, 8 hour contact) [microgram/sq. cm] | Lethal Concentrations LC90 ([1]; PY-Susceptible, 8 hour contact) [microgram/sq. cm] | Lethal Concentrations (cell spanning LC50 and LC90) ([2]; 2 hour contact) | Lethal Concentrations LC50 ([2]; 4 hour contact) [microgram/sq. cm] | Lethal Concentrations LC90 ([2]; 4 hour contact) | Lethal Concentrations LC50 ([2]; 8 hour contact) [microgram/sq. cm] | Lethal Concentrations LC90 ([2]; 8 hour contact) [microgram/sq. cm] |
| --- | --- | --- | --- | --- | --- | --- | --- | --- | --- | --- | --- | --- | --- | --- | --- |
| Ivermectin | 165.6 | 418.3 | 93.8 | 478.0 |  |  |  |  |  |  |  |  |  |  |  |
| Abamectin |  |  |  |  | 31.64 | 23.05 | no mortality | no mortality | 37.65 | 175.16 | no mortality | 138.5 | 1,089 microgram/sq. cm | 1.19 | 7.60 |
